Assay results from PMC4659573 (PLoS ONE, 2015).

Key:
[1] = tested on: primary CLL cells; assay: CLL cell apoptosis, Annexin V staining within the CD19+ subset, flow cytometry; type: cell-based, human; settings: for CLL cell apoptosis with selective CDK inhibitors: alone or in combination, data not shown
Excerpt: Following approval by the Committee for Protection of Human Subjects at Dartmouth-Hitchcock Medical Center, the Institutional Review Board at Oregon Health and Science University and written consent of patients, peripheral blood was obtained from patients with B-CLL at the hematology clinics at the above institutions (N = 52). The mean time from CLL diagnosis to entry of study was 5 years; 39 patients (75%) were previously untreated. Isolation of peripheral blood mononuclear cells (PMBCs) was performed using standard Ficoll-Hypaque technique (Amersham, Piscataway, NJ). CLL samples had more than 90% CD5^+/CD19^+ cells, as determined by flow cytometry. CLL cells were cultured in RMPI-1640 medium supplemented with 15% fetal bovine serum, 100 U/mL penicillin, 100 μg/mL streptomycin, 2 mM L-glutamine, 25 mM HEPES, 100 μM non-essential amino acids and 1 mM sodium pyruvate (Lonza, Walkersville, MD). 10 CLL samples with 17p deletion were obtained from the CLL Center at Dana-Farber Cancer Institute. All experiments were performed with freshly isolated cells except the viability assays involving the latter, which were performed with viably frozen cells.
CLL cell apoptosis was measured in duplicates as previously described using the ApoScreen Annexin V Apoptosis Kit. Briefly, cells were resuspended in 150 μl of Annexin V binding buffer containing 1 μl of Annexin V-PE, 1 μl of 7-aminoactinomycin D (7-AAD) and 1 μl of CD19-mAbs (Southern Biotech, Birmingham, AL) followed by flow cytometry on a MACSQuant flow cytometer (Miltenyi Biotec, San Diego, CA). Flow cytometry analysis was performed using FlowJo software (Tree Star, Ashland, OR). P1446A was provided by Piramal Healthcare Ltd. (Mumbai, India). JNK Inhibitor VIII, SP600125, SB203580, ABT-737 and PD0332991 were obtained from Selleck Chemicals (Houston, TX) and CVT-313—from Santa Cruz Biotechnology (Dallas, TX).
Here and subsequently, apoptosis was determined by Annexin V staining within the CD19^+ subset of cells. Horizontal lines represent the mean. […] IC50 value was determined for CLL samples with mutated (N = 13) and unmutated IGHV (N = 10). […] Cytogenetics markers were determined by fluorescent in situ hybridization [no marker, 11q, trisomy 12, 13q, 17p]. Horizontal lines represent the mean. […] Since we noted a significant variation in baseline apoptosis between patient samples, normalization to the time-matched untreated controls was performed to more clearly reflect the drug-induced apoptosis. *- p<0.05 compared to untreated control.

[2] = tested on: relapsed/refractory CLL; settings: cited from earlier work
[3] = biological target: T1, CDK1 (Homo sapiens, UniProt P06493); assay: biochemical kinase profiling (Kinase 400-Profiler, ProQinase); settings: S1 Fig
T1 construct: purchased ProQinase, Freiburg, Germany
Protocol: (§1) Supplementary file pone.0143685.s001.pptx: S1 Fig Determination of selectivity of P1446A-05 was established using biochemical kinase profiling (Kinase 400-Profiler, ProQinase, Freiburg, Germany). IC50 values were determined for the 37 kinases whose activity was inhibited by ≥60% at a drug concentration of 10 μM or less (as shown). […] (PPTX) Click here for additional data file.

[4] = biological target: T2, CDK2 (Homo sapiens, UniProt P24941); assay: as above; settings: S1 Fig
T2 construct: purchased ProQinase, Freiburg, Germany
Protocol: as §1

[5] = biological target: T3, CDK4 (Homo sapiens, UniProt P11802); assay: as above; settings: S1 Fig
T3 construct: purchased ProQinase, Freiburg, Germany
Protocol: as §1

[6] = biological target: T4, CDK5 (Homo sapiens, UniProt Q00535); assay: as above; settings: S1 Fig
T4 construct: purchased ProQinase, Freiburg, Germany
Protocol: as §1

[7] = biological target: T5, CDK6 (Homo sapiens, UniProt Q00534); assay: as above; settings: S1 Fig
T5 construct: purchased ProQinase, Freiburg, Germany
Protocol: as §1

[8] = biological target: T6, CDK8 (Homo sapiens, UniProt P49336); assay: as above; settings: S1 Fig
T6 construct: purchased ProQinase, Freiburg, Germany
Protocol: as §1

[9] = tested on: kinases (Kinase 400-Profiler panel); assay: kinase selectivity profiling (Kinase 400-Profiler, ProQinase); type: biochemical; settings: at a drug concentration of 10 μM or less
Protocol: as §1

[10] = biological target: T7, Glycogen synthase 3ß (GSK3ß) (Homo sapiens, UniProt P49841); assay: biochemical kinase profiling (S1 Fig)
T7 construct: purchased ProQinase, Freiburg, Germany
Protocol: as §1

[11] = tested on: PIM kinase isoforms; assay: biochemical kinase profiling (S1 Fig)
Protocol: as §1

[12] = tested on: HCT-116; design: method as in Piramal Healthcare Ltd., proprietary information; 24; settings: HCT-116 xenograft mouse model; ref Piramal Healthcare Ltd., proprietary information; 24; cited from earlier work
[13] = tested on: H-460; design: method as in Piramal Healthcare Ltd., proprietary information; 24; settings: H-460 xenograft mouse model; ref Piramal Healthcare Ltd., proprietary information; 24; cited from earlier work

T4 sequence (Q00535 whole entry): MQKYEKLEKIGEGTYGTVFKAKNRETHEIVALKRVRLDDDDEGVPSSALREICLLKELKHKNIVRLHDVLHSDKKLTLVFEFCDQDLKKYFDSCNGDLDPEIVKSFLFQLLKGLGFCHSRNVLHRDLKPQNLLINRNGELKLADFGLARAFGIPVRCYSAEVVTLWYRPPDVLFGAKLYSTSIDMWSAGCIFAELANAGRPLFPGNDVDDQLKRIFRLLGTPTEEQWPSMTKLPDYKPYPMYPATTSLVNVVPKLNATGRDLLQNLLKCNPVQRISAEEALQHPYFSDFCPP
T4 sequence (Q15078 99-307 partner limits assumed): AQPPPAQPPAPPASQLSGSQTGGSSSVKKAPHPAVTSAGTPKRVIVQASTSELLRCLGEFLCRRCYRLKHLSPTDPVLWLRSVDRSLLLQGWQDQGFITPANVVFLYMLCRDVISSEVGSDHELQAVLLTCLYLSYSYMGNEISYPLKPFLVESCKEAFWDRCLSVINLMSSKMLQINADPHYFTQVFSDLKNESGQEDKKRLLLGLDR
T6 sequence (P49336 whole entry): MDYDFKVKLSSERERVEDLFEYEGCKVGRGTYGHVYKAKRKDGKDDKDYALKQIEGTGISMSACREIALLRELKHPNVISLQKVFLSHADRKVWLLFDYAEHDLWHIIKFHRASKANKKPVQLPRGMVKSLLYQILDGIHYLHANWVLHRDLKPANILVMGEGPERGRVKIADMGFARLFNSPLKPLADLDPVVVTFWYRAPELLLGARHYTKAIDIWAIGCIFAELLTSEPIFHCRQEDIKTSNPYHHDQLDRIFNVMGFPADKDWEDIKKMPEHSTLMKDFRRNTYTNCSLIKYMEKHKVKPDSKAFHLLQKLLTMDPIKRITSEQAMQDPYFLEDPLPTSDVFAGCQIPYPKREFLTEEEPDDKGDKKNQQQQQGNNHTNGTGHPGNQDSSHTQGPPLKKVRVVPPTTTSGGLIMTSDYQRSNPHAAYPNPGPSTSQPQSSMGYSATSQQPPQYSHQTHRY
T6 sequence (P24863 whole entry partner): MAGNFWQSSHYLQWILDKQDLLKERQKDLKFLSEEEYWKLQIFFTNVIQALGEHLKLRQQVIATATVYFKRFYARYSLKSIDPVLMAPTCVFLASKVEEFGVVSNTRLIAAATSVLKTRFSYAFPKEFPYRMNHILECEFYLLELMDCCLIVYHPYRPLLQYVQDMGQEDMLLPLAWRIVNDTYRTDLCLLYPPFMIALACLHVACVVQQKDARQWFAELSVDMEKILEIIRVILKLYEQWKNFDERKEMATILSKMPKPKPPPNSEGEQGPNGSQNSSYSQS
T7 sequence (P49841 whole entry): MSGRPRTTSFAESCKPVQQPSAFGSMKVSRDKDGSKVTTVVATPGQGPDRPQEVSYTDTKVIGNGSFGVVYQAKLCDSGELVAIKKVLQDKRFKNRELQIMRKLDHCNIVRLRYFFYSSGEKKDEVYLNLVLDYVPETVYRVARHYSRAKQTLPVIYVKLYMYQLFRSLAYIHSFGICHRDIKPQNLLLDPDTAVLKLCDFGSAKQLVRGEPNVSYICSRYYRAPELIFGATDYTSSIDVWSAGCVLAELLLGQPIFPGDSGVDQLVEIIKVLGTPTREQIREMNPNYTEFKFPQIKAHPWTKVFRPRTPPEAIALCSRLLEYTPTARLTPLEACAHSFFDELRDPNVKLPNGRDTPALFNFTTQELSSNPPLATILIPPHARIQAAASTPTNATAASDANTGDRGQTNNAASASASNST
T3 sequence (P11802 whole entry): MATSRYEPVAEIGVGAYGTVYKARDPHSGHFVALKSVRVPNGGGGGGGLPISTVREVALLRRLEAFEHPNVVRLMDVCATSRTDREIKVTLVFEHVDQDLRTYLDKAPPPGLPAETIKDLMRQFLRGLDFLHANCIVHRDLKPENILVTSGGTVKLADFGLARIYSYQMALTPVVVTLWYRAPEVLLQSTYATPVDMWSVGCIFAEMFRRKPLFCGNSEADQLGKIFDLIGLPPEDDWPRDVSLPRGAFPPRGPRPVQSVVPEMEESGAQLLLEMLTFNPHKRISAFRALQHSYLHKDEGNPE
T3 sequence (P24385 whole entry partner): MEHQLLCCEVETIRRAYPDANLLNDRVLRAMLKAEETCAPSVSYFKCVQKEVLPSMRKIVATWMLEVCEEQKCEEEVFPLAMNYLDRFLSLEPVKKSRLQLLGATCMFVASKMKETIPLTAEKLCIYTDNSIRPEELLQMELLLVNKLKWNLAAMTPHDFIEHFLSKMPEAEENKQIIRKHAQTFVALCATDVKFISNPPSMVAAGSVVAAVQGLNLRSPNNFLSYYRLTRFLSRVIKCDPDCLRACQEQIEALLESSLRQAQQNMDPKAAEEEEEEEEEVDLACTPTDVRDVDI
T1 sequence (P06493 whole entry): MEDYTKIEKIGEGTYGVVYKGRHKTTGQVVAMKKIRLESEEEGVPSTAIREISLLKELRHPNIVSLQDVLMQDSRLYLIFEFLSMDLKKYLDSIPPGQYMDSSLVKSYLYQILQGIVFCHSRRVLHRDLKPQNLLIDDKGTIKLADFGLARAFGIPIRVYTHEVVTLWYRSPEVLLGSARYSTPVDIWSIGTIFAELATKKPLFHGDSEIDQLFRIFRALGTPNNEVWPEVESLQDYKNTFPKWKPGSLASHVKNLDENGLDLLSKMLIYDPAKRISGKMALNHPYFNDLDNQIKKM
T1 sequence (P14635 whole entry partner): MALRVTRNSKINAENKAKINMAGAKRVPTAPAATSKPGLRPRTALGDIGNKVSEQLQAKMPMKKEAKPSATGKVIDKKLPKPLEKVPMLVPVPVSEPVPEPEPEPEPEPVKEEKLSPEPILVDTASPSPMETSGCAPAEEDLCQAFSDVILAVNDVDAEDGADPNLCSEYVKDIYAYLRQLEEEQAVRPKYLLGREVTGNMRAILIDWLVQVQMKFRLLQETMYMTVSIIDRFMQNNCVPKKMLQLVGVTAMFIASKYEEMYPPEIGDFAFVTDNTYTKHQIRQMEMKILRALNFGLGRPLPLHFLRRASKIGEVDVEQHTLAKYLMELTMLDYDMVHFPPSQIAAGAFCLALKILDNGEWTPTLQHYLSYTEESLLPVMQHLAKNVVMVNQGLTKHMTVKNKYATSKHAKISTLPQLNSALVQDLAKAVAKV
T5 sequence (Q00534 whole entry): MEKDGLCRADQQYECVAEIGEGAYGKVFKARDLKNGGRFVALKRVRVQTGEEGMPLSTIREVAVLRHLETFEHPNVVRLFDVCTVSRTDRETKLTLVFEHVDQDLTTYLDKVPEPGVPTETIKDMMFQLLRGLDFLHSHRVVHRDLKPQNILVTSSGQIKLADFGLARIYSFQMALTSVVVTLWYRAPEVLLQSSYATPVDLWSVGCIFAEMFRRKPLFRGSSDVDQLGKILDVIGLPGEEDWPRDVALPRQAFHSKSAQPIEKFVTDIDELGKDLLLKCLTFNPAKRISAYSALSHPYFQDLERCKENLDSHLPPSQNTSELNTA
T5 sequence (P24385 whole entry partner): as the sequence (P24385 whole entry partner) above

COc1ccc(CNc2nc(N(CCO)CCO)nc3c2ncn3C(C)C)cc1 [CVT-313, reference compound]
CLL cell apoptosis with selective CDK inhibitors [1]: did not lead to CLL cell apoptosis

CCc1cnn2c(NCc3ccc[n+]([O-])c3)cc(N3CCCC[C@H]3CCO)nc12 [Dinaciclib]
overall response rate ([2]; patients with relapsed/refractory CLL): 54%

CN1CC[C@@H](c2c(O)cc(O)c3c(=O)cc(-c4ccc(C(F)(F)F)cc4Cl)oc23)[C@@H]1CO [P1446A]
IC50 [3]: 25 nM | IC50 [4]: 180 nM | IC50 [5]: 90 nM | IC50 [6]: 210 nM | IC50 [7]: 210 nM | IC50 [8]: 12 nM | cells that underwent apoptosis ([1]; 0.5 μM, 24 hour incubation, N = 10, vehicle control 29.2±2.0%): 47.2±3.5% | apoptosis of CLL cells ([1]; 1.5 μM, 24 hour incubation, N = 10): 83.3±3.3% | number of kinases whose activity was inhibited by ≥60% [9]: 37 | concentration range of inhibition in vitro [10]: nanomolar concentration range | concentration range of inhibition in vitro [11]: nanomolar concentration range | tumor growth in xenograft [12]: restricted growth | tumor growth in xenograft [13]: restricted growth

CC(=O)c1c(C)c2cnc(Nc3ccc(N4CCNCC4)cn3)nc2n(C2CCCC2)c1=O [PD0332991, reference compound]
CLL cell apoptosis with selective CDK inhibitors [1]: did not lead to CLL cell apoptosis

CN1CC[C@H](c2c(O)cc(O)c3c(=O)cc(-c4ccccc4Cl)oc23)[C@H](O)C1 [flavopiridol]
patients with responses [2]: 53%
